Assays:
[1] = solubility of the steroid in water and in hydrocarbon and other vehicles; assay type: physicochemical
[2] = solubility of econazole nitrate in water and in the isosorbide preparations; assay type: physicochemical

CC1(C)O[C@@H]2C[C@H]3[C@@H]4CCC5=CC(=O)CC[C@]5(C)[C@@]4(F)[C@@H](O)C[C@]3(C)[C@]2(C(=O)CCl)O1 [21-chloro-9α-fluoro-Δ^4-pregnene-11β,16α,17α-triol-3,20-dione 16,17-acetonide]
solubility in hydrocarbon vehicles ([1]; mineral oil, petrolatum or polyethylene gelled mineral oil, compared with water): even less soluble | solubility ([1]; water): < 5 µg/mL | solubility in water-soluble emulsifiers and oil liquids or emollients ([1]; water-soluble emulsifiers and oil liquids or emollients suggested for ointments, gels, creams and lotions): undesirably low solubility

Clc1ccc(COC(Cn2ccnc2)c2ccc(Cl)cc2Cl)cc1 (centres unmarked) [econazole nitrate]
solubilized and available econazole nitrate relative to a conventional lotion or cream ([2]; in these preparations (Econazole Cream 0.5%, Econazole Lotion 0.5%) vs conventional lotion or cream, about): ≥ 5 times | solubility ([2]; water): ~1000 µg/mL

— patent US4082881A, “Topical and other type pharmaceutical formulations containing isosorbide carrier” (E. R. Squibb & Sons, Inc., priority 1976, dated 1978)
